Results: patent US11845724B2, “USP30 inhibitors and uses thereof” (Vincere Biosciences, Inc., priority 2019, dated 2023)

target: USP30 (Homo sapiens (Human), UniProt Q70CQ3); experiment: Dundee MALDI-TOF mass spectrometry assay (IC50); format: biochemical; conditions: USP30 25 ng/μl, K48-linked diubiquitin 5.6 μM, avg, read-out: Dundee IC50 μM (avg in vitro MS assay)
Procedure: Compounds were tested in a MALDI-TOF assay based on the paper by Ritorto et al. (Ritorto et al. Screening of DUB activity and specificity by MALDI-TOF mass spectrometry. Nat. […] USP30 (25 ng/μl) tested against K48-linked diubiquitin (5.6 μM). USP30 was diluted in a buffer containing 40 mM Tris, 0.01% BSA, 1 mM DTT and K48 in 40 mM Tris, 0.01% BSA. The compounds were pre-incubated with the USP30 for 5 mins at room temp before the K48 dimer addition. The assay mixture was then incubated for 45 mins at room temp. The assay was stopped by the addition of TFA to a final concentration of 2% (v/v). […] Then 250 nl of these solutions were spotted onto an MTP AnchorChip 1,536 TF and this is analysed on the Bruker rapifleX MALDI-TOF.

Chain of USP30 (Q70CQ3 whole entry): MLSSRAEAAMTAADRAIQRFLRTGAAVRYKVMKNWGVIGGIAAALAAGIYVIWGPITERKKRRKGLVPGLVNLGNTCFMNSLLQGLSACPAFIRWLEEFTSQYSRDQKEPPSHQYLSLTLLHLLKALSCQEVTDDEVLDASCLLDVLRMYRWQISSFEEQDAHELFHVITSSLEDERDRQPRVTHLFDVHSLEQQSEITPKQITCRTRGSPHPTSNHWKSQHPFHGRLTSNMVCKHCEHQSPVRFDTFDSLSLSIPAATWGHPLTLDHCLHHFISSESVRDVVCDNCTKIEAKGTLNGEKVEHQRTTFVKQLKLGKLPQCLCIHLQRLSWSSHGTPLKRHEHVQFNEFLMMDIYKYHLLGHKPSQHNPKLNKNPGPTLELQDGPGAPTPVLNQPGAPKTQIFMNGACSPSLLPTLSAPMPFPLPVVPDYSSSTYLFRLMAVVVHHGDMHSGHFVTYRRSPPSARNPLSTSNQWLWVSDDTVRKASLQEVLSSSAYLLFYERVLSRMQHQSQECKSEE

SMILES	IC50
CC(C)(C)NS(=O)(=O)c1ccc(NC(=O)[C@H](Cc2c[nH]c3ccccc23)NC(=O)c2ccc(F)cc2)cc1 [Compound I-1, (S)-N-(1-(4-(N-tert-butylsulfamoyl)phenylamino)-3-(1H-indol-3-yl)-1-oxopropan-2-yl)-4-fluorobenzamide]	0.05 to 1 µM
CC(C)(C)CS(=O)(=O)c1ccc(NC(=O)[C@H](Cc2ccccc2)NC(=O)c2ccc(F)cc2)cc1 [Compound I-2, (S)-4-fluoro-N-(1-(4-(2,2-Dimethyl-propylsulfonyl)phenylamino)-1-oxo-3-phenylpropan-2-yl)benzamide]	0.05 to 1 µM
CC(C)(C)CS(=N)(=O)c1ccc(NC(=O)[C@H](Cc2ccccc2)NC(=O)c2ccc(F)cc2)cc1 (stereo partly drawn) [Compound I-3, N-((2S)-1-(4-(2,2-dimethylpropylsulfonimidoyl)phenylamino)-1-oxo-3-phenylpropan-2-yl)-4-fluorobenzamide]	> 10 µM
CCC(C)(C)NS(=O)(=O)c1ccc(NC(=O)[C@H](Cc2ccccc2)NC(=O)c2ccc(F)cc2)cc1 [Compound I-24, (S)-4-fluoro-N-(1-oxo-1-(4-(N-tert-pentylsulfamoyl)phenylamino)-3-phenylpropan-2-yl)benzamide]	< 0.05 µM
O=C(N[C@@H](Cc1ccccc1)C(=O)Nc1ccc(S(=O)(=O)NC2CCCCC2)cc1)c1ccc(F)cc1 [Compound I-31, (S)-N-(1-(4-(N-cyclohexylsulfamoyl)phenylamino)-1-oxo-3-phenylpropan-2-yl)-4-fluorobenzamide]	0.05 to 1 µM
O=C(N[C@@H](Cc1ccccc1)C(=O)Nc1ccc(S(=O)(=O)Nc2ccccc2)cc1)c1ccc(F)cc1 [Compound I-32, (S)-4-fluoro-N-(1-oxo-3-phenyl-1-(4-(N-phenylsulfamoyl)phenylamino)propan-2-yl)benzamide]	0.05 to 1 µM
CC(C)(C)NS(=O)(=O)c1ccc(NC(=O)C2Cc3ncccc3N2C(=O)c2ccc(F)cc2)cc1 (stereo not shown) [Compound I-54, N-(4-(N-tert-butylsulfamoyl)phenyl)-1-(4-fluorobenzoyl)-2,3-dihydro-1H-pyrrolo[3,2-b]pyridine-2-carboxamide]	> 1 µM

The remaining lines, values ahead:

IC50	SMILES
< 0.05 µM	O=C(N[C@@H](Cc1ccccc1)C(=O)Nc1ccc(S(=O)(=O)NC2CC2)cc1)c1ccc(F)cc1 [Compound I-6, (S)-N-(1-(4-(N-cyclopropylsulfamoyl)phenylamino)-1-oxo-3-phenylpropan-2-yl)-4-fluorobenzamide]
< 0.05 µM	O=C(N[C@@H](Cc1ccccc1)C(=O)Nc1ccc(S(=O)(=O)NC2CCC2)cc1)c1ccc(F)cc1 [Compound I-7, (S)-N-(1-(4-(N-cyclobutylsulfamoyl)phenylamino)-1-oxo-3-phenylpropan-2-yl)-4-fluorobenzamide]
< 0.05 µM	O=C(N[C@@H](Cc1ccccc1)C(=O)Nc1ccc(S(=O)(=O)NC2CCCC2)cc1)c1ccc(F)cc1 [Compound I-8, (S)-N-(1-(4-(N-cyclopentylsulfamoyl)phenylamino)-1-oxo-3-phenylpropan-2-yl)-4-fluorobenzamide]
< 0.05 µM	O=C(N[C@@H](Cc1ccccc1)C(=O)Nc1ccc(S(=O)(=O)NCC2CC2)cc1)c1ccc(F)cc1 [Compound I-9, (S)-N-(1-(4-(N-(cyclopropylmethyl)sulfamoyl)phenylamino)-1-oxo-3-phenylpropan-2-yl)-4-fluorobenzamide]
< 0.05 µM	CC[C@@H](C)NS(=O)(=O)c1ccc(NC(=O)[C@H](Cc2ccccc2)NC(=O)c2ccc(F)cc2)cc1 [Compound I-12, N-((S)-1-((4-(N-((R)-sec-butyl)sulfamoyl)phenyl)amino)-1-oxo-3-phenylpropan-2-yl)-4-fluorobenzamide]

target: recombinant USP30 (amino acids 57-517 of the human sequence) (Homo sapiens (Human), UniProt Q70CQ3); experiment: In vitro USP30 biochemical assay (Ubiquitin-Rhodamine); conditions: read-out: USP30 IC50 μM (avg), Ubiquitin-Rhodamine substrate 25 nM, 1.5 nM recombinant USP30
Sequence (Q70CQ3 57-517): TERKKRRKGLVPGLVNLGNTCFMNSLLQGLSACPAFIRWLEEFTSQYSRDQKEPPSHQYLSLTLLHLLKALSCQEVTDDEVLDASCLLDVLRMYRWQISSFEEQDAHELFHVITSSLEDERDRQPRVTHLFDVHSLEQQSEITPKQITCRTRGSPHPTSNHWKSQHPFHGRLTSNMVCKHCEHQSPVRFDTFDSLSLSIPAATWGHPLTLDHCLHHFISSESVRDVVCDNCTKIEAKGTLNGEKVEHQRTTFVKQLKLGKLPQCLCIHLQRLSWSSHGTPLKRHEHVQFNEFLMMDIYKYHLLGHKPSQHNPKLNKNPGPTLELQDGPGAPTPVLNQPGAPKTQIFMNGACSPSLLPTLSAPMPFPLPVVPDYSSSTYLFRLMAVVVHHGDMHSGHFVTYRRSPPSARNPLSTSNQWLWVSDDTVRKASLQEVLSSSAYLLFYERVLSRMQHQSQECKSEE

IC50	SMILES
< 0.05 µM	COc1cc(NC(=O)[C@H](Cc2ccccc2)NC(=O)c2ccc(F)cc2)ccc1S(=O)(=O)N[C@@H]1CCOC1 [Compound I-183, 4-fluoro-N-((S)-1-(3-methoxy-4-(N-((R)-tetrahydrofuran-3-yl)sulfamoyl)phenylamino)-1-oxo-3-phenylpropan-2-yl)benzamide]
